# Measurements reported in patent US7635464B2, “Selective targeting of apoptotic cells” (New South Innovations Pty Limited, priority 2001, dated 2009).
# Residues, ends and D or L forms follow the SMILES beside them. *: point of attachment. Cbz = O=C(OCc1ccccc1)*; CH2F = FC*
# Experiments:
# [1] = tested on: human BxPC-3 pancreatic carcinoma tumours; experiment: In vivo near-infrared imaging of BxPC-3 tumours; design: species or system SCID mice; settings: 0.8 mg/kg S.C.
# Description: (§1) C57BL/6 (Jackson Labs, Bar Harbor, ME) mice bearing S.C. Lewis lung tumours, SCID (Massachusetts General Hospital, Boston, Mass.) bearing S.C. BxPC3 tumours or TRAMP (Greenberg et al., 1995) mice were given 0.8 mg/kg GSAO-Cy™5.5, GSAA-Cy™5.5 or Cy™5.5 dye alone in 0.1 mL of PBS containing 20 mM glycine by S.C. injection in the right hind flank. The S.C. tumours were established in the proximal dorsum.
# (§2) The imaging system utilised a Leica Microsystems fluorescence microscope (Allendale, N.J.) with a 100 W halogen lamp source and a filter system for CY™5.5 (Chroma Technology, Brattleboro, Vt.). Anaesthetised mice were restrained in a light proof box and fluorescence detected by a 12-bit monochrome charged coupled device (Photometrics, Tuscon, Ariz.). Exposure time was 8 seconds with images digitally acquired as 16-bit Tiff files in IPLab (Scanalytics, Fairfax, Va.). White light images of the tumours were also acquired.
# [2] = tested on: murine Lewis lung tumours; experiment: In vivo near-infrared imaging of Lewis lung tumours; design: species or system C57BL/6 mice; settings: 0.8 mg/kg S.C.
# Description: as §1, §2
# HT1080 cells [3] = experiment: Flow cytometry of GSAO- and annexin V-labeled cells; format: cell-based, human
# Description: HT1080 cells were treated for 20 h with 1 μg.mL^−1 camptothecin (Calbiochem, San Diego, Calif.), then detached with PBS containing 2.5 mM EDTA and combined with cells that had detached during incubation. The cells were washed twice with annexin V binding buffer (10 mM Hepes, 140 mM NaCl, 2.5 mM CaCl2, pH 7.4), and 2×10^5 cells per treatment were incubated in 100 μL annexin V binding buffer containing 10 μM GSAO-F or GSAA-F for 15 min at room temperature with shaking. The cells were washed twice, then incubated for 15 min in 100 μL annexin V binding buffer containing 5 μl phycoerythrin-conjugated annexin V (annexin V-PE) (PharMingen, San Diego, Calif.) and 1 μl of a 100 μg.mL^−1 solution of propidium iodide (Molecular Probes, Eugene, Oreg.). The total volume was then made up to 500 μl with annexin V binding buffer, and the samples were transferred to ice. Flow cytometry was performed using a FACSstar flow cytometer (Beckton Dickson). Results are derived from 10^4 cells per sample. To test the effect of caspase inhibition on to GSAO-F uptake, cells were treated with camptothecin in the absence or presence of 10 μg.mL^−1 Z-VAD-FMK (carbobenzoxy-valyl-alanyl-aspartyl-[O-methyl]-fluoromethylketone) (Calbiochem-Novabiochem, San Diego, Calif.), then detached, washed and incubated in annexin V binding buffer containing 10 μM GSAO-F for 15 min. The cells were washed twice and subjected to flow cytometry.
# HT1080 cells [4] = experiment: Labelling of cells with GSAO-B (lysate SDS-PAGE, avidin-peroxidase blot, PDI Western blot); format: cell-based, human; settings: 5-fold molar excess (50 μM) of dimercaptopropanol
# Description: HT1080 cells were for 20 h with 1 μg.mL^−1 camptothecin and labeled with 10 μM GSAO and annexin V-PE as described above for labelling with GSAO-F and annexin V-PE. Cells were sorted on the basis of their annexin V-PE fluorescence, washed three times with PBS and 4×10^4 cells were lysed in 40 μL of RIPA buffer (50 mM Tris-HCl, 0.5 M NaCl, 1% Triton X-100, 1% sodium deoxycholate, 0.1% SDS, 10 μM leupeptin, 10 μM aprotinin, 2 mM phenylmethylsulfonyl fluoride, 5 mM EDTA, pH 8.0) at 4° C. Equal amounts of lysate were electrophoresed on an 8-16% gradient SDS-polyacrylamide gel (Gradipore, Sydney), transferred to […] (PVDF) membrane (Millipore, Bedford, Mass.) and biotinylated proteins were detected with a 1:2000 dilution of avidin-peroxidase (Molecular Probes, Eugene, Oreg.). To identify proteins that had incorporated GSAO-B, 20 μl of RIPA lysate was incubated with 5 μl streptavidin-dynabeads (Dynal Biotech, Oslo, Norway) for 15 min at 4° C. The beads were then washed twice with RIPA buffer, resuspended in 20 μl SDS-PAGE loading buffer, resolved on SDS-PAGE, transferred to polyvinylidene difluoride membrane, and the PDI was detected by Western blot using 2 μg.mL^−1 of anti-PDI polyclonal antibodies (Donoghue et al., 2000) and 1:2000 dilution of goat anti-rabbit peroxidase-conjugated antibodies (Dako Corporation, Carpinteria, Calif.). […]
# HT1080 cells [5] = experiment: Confocal microscopy of GSAO- and annexin V-labelled cells; format: cell-based, human; settings: camptothecin-treated; 10 μM GSAO-F
# Description: HT1080 cells were treated for 20 h with 1 μg.mL^−1 camptothecin, then detached with PBS containing 10 mM EDTA, washed with annexin V binding buffer, and incubated for 15 min in annexin V binding buffer containing 10 μM GSAO-F and 1:20 (v/v) Alexa594conjugated annexin V (Molecular Probes, Eugene, Oreg.). The cells were then washed twice with annexin V binding buffer and pipetted onto a microscope slide. Transverse cell sections were captured using an Olympus BX60 microscope and an Optiscan F900e confocal unit and software (Optiscan, Notting Hill, Austrlia).
compound,measurement,setting,value
Cy™5.5,tumour labelling at 24 hours,[1],Neither GSAA-Cy™5.5 (FIG. 11d(B)) nor Cy™5.5 (FIG. 11d(D)) labelled BxPC3 tumours
same,labelling of Lewis lung tumours by controls,[2],Neither GSAA-Cy™5.5 nor Cy™5.5 labelled
"CC[C@@]1(O)C(=O)OCc2c1cc1n(c2=O)Cc2cc3ccccc3nc2-1 [camptothecin, reference compound]",increase in the proportion of cells with phycoerythrin fluorescence greater than 100 fluorescence units (annexin V-positive),"HT1080 cells [3]; camptothecin 1 μg.mL−1, 20 h vs untreated",7.3 fold
"OCC(S)CS (centres unmarked) [dimercaptopropanol, 2,3-dimercaptopropanol, reference compound]",effect on labelling of apoptotic cellular proteins by GSAO-B,HT1080 cells [4],ablated
O=[As]c1ccc(NC(=O)CSC[C@H](NC(=O)CC[C@H](NC(=O)CCSCC(=O)Nc2ccc(-c3c4ccc(=O)cc-4oc4cc(O)ccc34)c(C(=O)O)c2)C(=O)O)C(=O)NCC(=O)O)cc1 (some centres unmarked) [GSAO-F],distribution in annexin V-positive cells,HT1080 cells [5],distributed in the cytoplasm
same,fluorescence in cells that did not label with annexin V,HT1080 cells [5],negligible
same,increase in the proportion of cells whose fluorescein fluorescence was greater than 1027 units,"HT1080 cells [3]; 10 μM label, 15 min, camptothecin-treated vs untreated cells",8.6 fold
same,mean fluorescein fluorescence,"HT1080 cells [3]; camptothecin-treated cell population, 10 μM label",1400 units
same,mean fluorescein fluorescence,"HT1080 cells [3]; untreated cells, 10 μM label",255 units
same,binding to apoptotic and dead cells,HT1080 cells [3]; with annexin V-PE and propidium iodide,bound to both apoptotic and dead cells
"COC(=O)C[C@H](NC(=O)[C@H](C)NC(=O)[C@@H](NC(=O)OCc1ccccc1)C(C)C)C(=O)CF [Z-VAD-FMK, carbobenzoxy-valyl-alanyl-aspartyl-[O-methyl]-fluoromethylketone, reference compound] (Cbz-Val-Ala-Asp(OMe)-CH2F)",effect on the increase in GSAO-F positive cells seen with camptothecin treatment,HT1080 cells [3]; Z-VAD-FMK 10 μg.mL−1 during camptothecin treatment,substantially blocked
